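Interpolation was linear, between the two tested concentrations surrounding the appropriate level; five concentrations were tested over 48 hours in 96-well plates. TGI denotes the concentration required for complete inhibition of growth.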
Assays:
Experiment in all cases: NCI-60 cell line screen, 48 h
786-0 renal = test system: 786-0 renal
A498 renal = test system: A498 renal
A549 NSCLC = test system: A549 NSCLC
ACHN renal = test system: ACHN renal
BT-549 breast = test system: BT-549 breast
CAKI-1 renal = test system: CAKI-1 renal
CCRF-CEM leukemia = test system: CCRF-CEM leukemia
COLO 205 colon = test system: COLO 205 colon
DU-145 prostate = test system: DU-145 prostate
EKVX NSCLC = test system: EKVX NSCLC
HCC-2998 colon = test system: HCC-2998 colon
HCT-116 colon = test system: HCT-116 colon
HCT-15 colon = test system: HCT-15 colon
HOP-62 NSCLC = test system: HOP-62 NSCLC
HS 578T breast = test system: HS 578T breast
IGROV1 ovarian = test system: IGROV1 ovarian
KM12 colon = test system: KM12 colon
M14 melanoma = test system: M14 melanoma
MALME-3M melanoma = test system: MALME-3M melanoma
MCF7 breast = test system: MCF7 breast
MDA-MB-231 breast = test system: MDA-MB-231 breast
MDA-MB-435 = test system: MDA-MB-435
MDA-N = test system: MDA-N
MOLT-4 leukemia = test system: MOLT-4 leukemia
NCI-H226 lung = test system: NCI-H226 lung
NCI-H23 lung = test system: NCI-H23 lung
NCI-H460 lung = test system: NCI-H460 lung
NCI/ADR-RES ovarian = test system: NCI/ADR-RES ovarian
OVCAR-3 ovarian = test system: OVCAR-3 ovarian
OVCAR-4 ovarian = test system: OVCAR-4 ovarian
OVCAR-5 ovarian = test system: OVCAR-5 ovarian
OVCAR-8 ovarian = test system: OVCAR-8 ovarian
PC-3 prostate = test system: PC-3 prostate
RPMI-8226 leukemia = test system: RPMI-8226 leukemia
RXF 393 renal = test system: RXF 393 renal
SF-268 CNS = test system: SF-268 CNS
SF-295 CNS = test system: SF-295 CNS
SK-MEL-2 melanoma = test system: SK-MEL-2 melanoma
SK-MEL-5 melanoma = test system: SK-MEL-5 melanoma
SK-OV-3 ovarian = test system: SK-OV-3 ovarian
SN12C renal = test system: SN12C renal
SNB-19 CNS = test system: SNB-19 CNS
SNB-75 CNS = test system: SNB-75 CNS
SR leukemia = test system: SR leukemia
SW-620 colon = test system: SW-620 colon
T-47D breast = test system: T-47D breast
U251 CNS = test system: U251 CNS
UACC-257 melanoma = test system: UACC-257 melanoma
UACC-62 melanoma = test system: UACC-62 melanoma
UO-31 renal = test system: UO-31 renal
HL-60(TB) leukemia = test system: HL-60(TB) leukemia
HT29 colon = test system: HT29 colon
K-562 leukemia = test system: K-562 leukemia
LOX IMVI melanoma = test system: LOX IMVI melanoma
NCI-H522 lung = test system: NCI-H522 lung
SF-539 CNS = test system: SF-539 CNS
SK-MEL-28 melanoma = test system: SK-MEL-28 melanoma
TK-10 renal = test system: TK-10 renal

COc1ccccc1-c1nc2ccccc2c(=O)[nH]1
TGI (786-0 renal): > 100 µM | TGI (A498 renal): > 100 µM | TGI (A549 NSCLC): > 100 µM | TGI (ACHN renal): > 100 µM | TGI (BT-549 breast): > 100 µM | TGI (CAKI-1 renal): > 100 µM | TGI (CCRF-CEM leukemia): > 100 µM | TGI (COLO 205 colon): > 100 µM | TGI (DU-145 prostate): > 100 µM | TGI (EKVX NSCLC): > 100 µM | TGI (HCC-2998 colon): > 100 µM | TGI (HCT-116 colon): > 100 µM | TGI (HCT-15 colon): > 100 µM | TGI (HOP-62 NSCLC): > 100 µM | TGI (HS 578T breast): > 100 µM | TGI (IGROV1 ovarian): > 100 µM | TGI (KM12 colon): > 100 µM | TGI (M14 melanoma): > 100 µM | TGI (MALME-3M melanoma): > 100 µM | TGI (MCF7 breast): > 100 µM | TGI (MDA-MB-231 breast): > 100 µM | TGI (MDA-MB-435): > 100 µM | TGI (MDA-N): > 100 µM | TGI (MOLT-4 leukemia): > 100 µM | TGI (NCI-H226 lung): > 100 µM | TGI (NCI-H23 lung): > 100 µM | TGI (NCI-H460 lung): > 100 µM | TGI (NCI/ADR-RES ovarian): > 100 µM | TGI (OVCAR-3 ovarian): > 100 µM | TGI (OVCAR-4 ovarian): > 100 µM | TGI (OVCAR-5 ovarian): > 100 µM | TGI (OVCAR-8 ovarian): > 100 µM | TGI (PC-3 prostate): > 100 µM | TGI (RPMI-8226 leukemia): > 100 µM | TGI (RXF 393 renal): > 100 µM | TGI (SF-268 CNS): > 100 µM | TGI (SF-295 CNS): > 100 µM | TGI (SK-MEL-2 melanoma): > 100 µM | TGI (SK-MEL-5 melanoma): > 100 µM | TGI (SK-OV-3 ovarian): > 100 µM | TGI (SN12C renal): > 100 µM | TGI (SNB-19 CNS): > 100 µM | TGI (SNB-75 CNS): > 100 µM | TGI (SR leukemia): > 100 µM | TGI (SW-620 colon): > 100 µM | TGI (T-47D breast): > 100 µM | TGI (U251 CNS): > 100 µM | TGI (UACC-257 melanoma): > 100 µM | TGI (UACC-62 melanoma): > 100 µM | TGI (UO-31 renal): > 100 µM

CCCC(=O)Nc1cc([N+](=O)[O-])c([N+](=O)[O-])cc1OC
TGI (786-0 renal): > 100 µM | TGI (A498 renal): 32.5 µM | TGI (A549 NSCLC): 29.8 µM | TGI (ACHN renal): 26.5 µM | TGI (BT-549 breast): 31 µM | TGI (CAKI-1 renal): 29.5 µM | TGI (CCRF-CEM leukemia): 51.4 µM | TGI (COLO 205 colon): 30.9 µM | TGI (DU-145 prostate): 31.6 µM | TGI (EKVX NSCLC): 31.8 µM | TGI (HCT-116 colon): 32.3 µM | TGI (HCT-15 colon): > 100 µM | TGI (HL-60(TB) leukemia): 39 µM | TGI (HOP-62 NSCLC): 28.1 µM | TGI (HS 578T breast): 46.5 µM | TGI (HT29 colon): 29.3 µM | TGI (IGROV1 ovarian): 38.9 µM | TGI (K-562 leukemia): > 100 µM | TGI (KM12 colon): 27.2 µM | TGI (LOX IMVI melanoma): > 100 µM | TGI (M14 melanoma): 25.6 µM | TGI (MCF7 breast): > 100 µM | TGI (MDA-MB-231 breast): 38.9 µM | TGI (MDA-MB-435): 33.3 µM | TGI (MDA-N): 30.6 µM | TGI (NCI-H226 lung): 51.2 µM | TGI (NCI-H23 lung): 34.4 µM | TGI (NCI-H460 lung): 35.4 µM | TGI (NCI-H522 lung): 27.6 µM | TGI (NCI/ADR-RES ovarian): > 100 µM | TGI (OVCAR-3 ovarian): 27.8 µM | TGI (OVCAR-4 ovarian): 33.6 µM | TGI (OVCAR-5 ovarian): > 100 µM | TGI (OVCAR-8 ovarian): 34.2 µM | TGI (PC-3 prostate): > 100 µM | TGI (RPMI-8226 leukemia): 68.4 µM | TGI (SF-268 CNS): 34.6 µM | TGI (SF-295 CNS): 21.7 µM | TGI (SF-539 CNS): 37.8 µM | TGI (SK-MEL-2 melanoma): 41.6 µM | TGI (SK-MEL-28 melanoma): 32.2 µM | TGI (SK-MEL-5 melanoma): 30.2 µM | TGI (SK-OV-3 ovarian): 26.8 µM | TGI (SN12C renal): 29.5 µM | TGI (SNB-19 CNS): 30.7 µM | TGI (SNB-75 CNS): 30.3 µM | TGI (SR leukemia): 21.5 µM | TGI (SW-620 colon): 89.9 µM | TGI (T-47D breast): 19.4 µM | TGI (TK-10 renal): 31 µM | TGI (U251 CNS): 29.8 µM | TGI (UACC-257 melanoma): 35.4 µM | TGI (UACC-62 melanoma): 33.7 µM | TGI (UO-31 renal): 3.13 µM

Source: PubChem BioAssay (NCI)
